From patent US10954269B2, “Anti-inflammatory tripeptides” (Dr. August Wolff Gmbh & Co. KG Arzneimittel, priority 2013, dated 2021)

Experiments:
Details in all cases: substance 10^−9M
[1] = tested on: primary human T-cells; assay: Cytokine secretion on protein level in activated primary human T-cells (13-plex FACS / Luminex, supernatant); type: cell-based
Summary of the method: (§1)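 Primary T-cells from peripheral blood of healthy volunteers, or HaCaT cells, were activated with PMA/Ionomycin or IFN-γ for 48 h and treated with tripeptides. Supernatants were collected 48 h and 72 h after stimulation and cytokines (IL-1, IL-2, IL-6, IL-12p70, IL-17, IFN-γ, TNF-α) were measured by 13-plex FACS.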

[2] = tested on: human keratinocyte cell line (HaCaT); assay: Cytokine secretion on protein level in activated human keratinocyte cell line HaCaT (13-plex FACS / Luminex, supernatant); type: cell-based
Summary of the method: as §1

[3] = tested on: primary murine T-cells; assay: Cytokine secretion on protein level in activated primary murine T-cells (13-plex FACS / Luminex, supernatant); type: cell-based, C57BL/6 mice
Summary of the method: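 T-cells from secondary lymphatic organs of naïve C57BL/6 mice, stimulated with PMA/Ionomycin or IFN-γ; supernatant cytokines measured by 13-plex FACS 48 h and 72 h after stimulation. In another run, PMA/Ionomycin-stimulated cells received compounds at 10^−7, 10^−9 and 10^−11 M, with IFN-γ, IL-17 and IL-10 measured by Luminex.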

[4] = primary human T-cells stimulated with IFN-γ
[5] = primary human T-cells stimulated with PBS
[6] = primary human T-cells stimulated with PMA/Ionomycin
[7] = HaCaT stimulated with PMA/Ionomycin
[8] = primary murine T-cells stimulated with IFN-γ
[9] = primary murine T-cells stimulated with PBS
[10] = primary murine T-cells stimulated with PMA/Ionomycin

In the case of “N^α,N^α-dimethyl-(L)-Lys-(D)-Pro-N^α-methyl-(L)-Thr-NH2 [Example 4]”, the IL-1 cytokine concentration [1, 4] is reported as 366.09 pg/mL, the IL-2 cytokine concentration [1, 4] is reported as 326.11 pg/mL and the IL-4 cytokine concentration [1, 4] is reported as 176.6 pg/mL. The IL-5 cytokine concentration [1, 4] was 27.34 pg/mL, the IL-6 cytokine concentration [1, 4] was 180.43 pg/mL and the IL-9 cytokine concentration [1, 4] was 10.84 pg/mL. It also gave an IL-10 cytokine concentration [1, 4] of 75.72 pg/mL, an IL-12p70 cytokine concentration [1, 4] of 0 pg/mL and an IL-13 cytokine concentration [1, 4] of 212.64 pg/mL. For the same substance, the IL-17 cytokine concentration [1, 4] was 162.73 pg/mL, the IL-22 cytokine concentration [1, 4] was 0 pg/mL and the TNF-α cytokine concentration [1, 4] was 103.24 pg/mL. For the same substance, the IL-1 cytokine concentration [1, 5] was 122.89 pg/mL, the IL-2 cytokine concentration [1, 5] was 0 pg/mL and the IL-4 cytokine concentration [1, 5] was 60.49 pg/mL. For the same substance, the IL-5 cytokine concentration [1, 5] was 0 pg/mL, the IL-6 cytokine concentration [1, 5] was 226.2 pg/mL and the IL-9 cytokine concentration [1, 5] was 3.71 pg/mL. The IL-10 cytokine concentration [1, 5] was 0 pg/mL, the IL-12p70 cytokine concentration [1, 5] was 0 pg/mL and the IL-13 cytokine concentration [1, 5] was 0 pg/mL. For the same substance, the IL-17 cytokine concentration [1, 5] was 0 pg/mL, the IL-22 cytokine concentration [1, 5] was 0 pg/mL and the INF-α cytokine concentration [1, 5] was 0 pg/mL. The TNF-α cytokine concentration [1, 5] was 0 pg/mL, the IL-1 cytokine concentration [1, 6] was 689.99 pg/mL and the IL-2 cytokine concentration [1, 6] was 1227.93 pg/mL. The IL-4 cytokine concentration [1, 6] was 239.37 pg/mL, the IL-5 cytokine concentration [1, 6] was 473.23 pg/mL and the IL-6 cytokine concentration [1, 6] was 1280 pg/mL. It also gave an IL-9 cytokine concentration [1, 6] of 239.43 pg/mL, an IL-10 cytokine concentration [1, 6] of 417.95 pg/mL and an IL-12p70 cytokine concentration [1, 6] of 0 pg/mL. For the same substance, the IL-13 cytokine concentration [1, 6] was 1081.09 pg/mL, the IL-17 cytokine concentration [1, 6] was 1356.78 pg/mL and the IL-22 cytokine concentration [1, 6] was 0 pg/mL. It also gave an INF-α cytokine concentration [1, 6] of 5384.11 pg/mL, a TNF-α cytokine concentration [1, 6] of 4112.99 pg/mL and an IL-1 cytokine concentration ([2]; HaCaT stimulated with IFN-γ) of 0 pg/mL. It also gave an IL-2 cytokine concentration ([2]; HaCaT stimulated with IFN-γ) of 0 pg/mL, an IL-4 cytokine concentration ([2]; HaCaT stimulated with IFN-γ) of 0 pg/mL and an IL-5 cytokine concentration ([2]; HaCaT stimulated with IFN-γ) of 0 pg/mL. It also gave an IL-6 cytokine concentration ([2]; HaCaT stimulated with IFN-γ) of 224.07 pg/mL, an IL-9 cytokine concentration ([2]; HaCaT stimulated with IFN-γ) of 0 pg/mL and an IL-10 cytokine concentration ([2]; HaCaT stimulated with IFN-γ) of 0 pg/mL. For the same substance, the IL-12p70 cytokine concentration ([2]; HaCaT stimulated with IFN-γ) was 0 pg/mL, the IL-13 cytokine concentration ([2]; HaCaT stimulated with IFN-γ) was 0 pg/mL and the IL-17 cytokine concentration ([2]; HaCaT stimulated with IFN-γ) was 13.16 pg/mL. It also gave an IL-22 cytokine concentration ([2]; HaCaT stimulated with IFN-γ) of 0 pg/mL, a TNF-α cytokine concentration ([2]; HaCaT stimulated with IFN-γ) of 0 pg/mL and an IFN-γ cytokine concentration ([2]; HaCaT stimulated with PBS) of 0 pg/mL. It also gave an IL-1 cytokine concentration ([2]; HaCaT stimulated with PBS) of 0 pg/mL, an IL-2 cytokine concentration ([2]; HaCaT stimulated with PBS) of 18.85 pg/mL and an IL-4 cytokine concentration ([2]; HaCaT stimulated with PBS) of 109.04 pg/mL. For the same substance, the IL-5 cytokine concentration ([2]; HaCaT stimulated with PBS) was 0 pg/mL, the IL-6 cytokine concentration ([2]; HaCaT stimulated with PBS) was 80.55 pg/mL and the IL-9 cytokine concentration ([2]; HaCaT stimulated with PBS) was 2.87 pg/mL. It also gave an IL-10 cytokine concentration ([2]; HaCaT stimulated with PBS) of 61.87 pg/mL, an IL-12p70 cytokine concentration ([2]; HaCaT stimulated with PBS) of 0 pg/mL and an IL-13 cytokine concentration ([2]; HaCaT stimulated with PBS) of 123.68 pg/mL. For the same substance, the IL-17 cytokine concentration ([2]; HaCaT stimulated with PBS) was 12.85 pg/mL, the IL-22 cytokine concentration ([2]; HaCaT stimulated with PBS) was 0 pg/mL and the TNF-α cytokine concentration ([2]; HaCaT stimulated with PBS) was 0 pg/mL. It also gave an IFN-γ cytokine concentration [2, 7] of 39.23 pg/mL, an IL-1 cytokine concentration [2, 7] of 0 pg/mL and an IL-2 cytokine concentration [2, 7] of 0 pg/mL. It also gave an IL-4 cytokine concentration [2, 7] of 0 pg/mL, an IL-5 cytokine concentration [2, 7] of 16.77 pg/mL and an IL-6 cytokine concentration [2, 7] of 225.53 pg/mL. The IL-9 cytokine concentration [2, 7] was 0 pg/mL, the IL-10 cytokine concentration [2, 7] was 97.56 pg/mL and the IL-12p70 cytokine concentration [2, 7] was 0 pg/mL. For the same substance, the IL-13 cytokine concentration [2, 7] was 0 pg/mL, the IL-17 cytokine concentration [2, 7] was 28.83 pg/mL and the IL-22 cytokine concentration [2, 7] was 0 pg/mL. It also gave a TNF-α cytokine concentration [2, 7] of 3.93 pg/mL, an IL-1 cytokine concentration [3, 8] of 100.01 pg/mL and an IL-2 cytokine concentration [3, 8] of 206.76 pg/mL. It also gave an IL-4 cytokine concentration [3, 8] of 0 pg/mL, an IL-5 cytokine concentration [3, 8] of 486.86 pg/mL and an IL-6 cytokine concentration [3, 8] of 235.86 pg/mL. For the same substance, the IL-10 cytokine concentration [3, 8] was 1250.21 pg/mL, the IL-13 cytokine concentration [3, 8] was 0 pg/mL and the IL-17 cytokine concentration [3, 8] was 92.71 pg/mL. It also gave an IL-21 cytokine concentration [3, 8] of 814.33 pg/mL, an IL-22 cytokine concentration [3, 8] of 114.68 pg/mL and an IL-27 cytokine concentration [3, 8] of 138.81 pg/mL. For the same substance, the TNF-α cytokine concentration [3, 8] was 47.36 pg/mL, the IFN-γ cytokine concentration [3, 9] was 2456.98 pg/mL and the IL-1 cytokine concentration [3, 9] was 78.5 pg/mL. The IL-2 cytokine concentration [3, 9] was 147.3 pg/mL, the IL-4 cytokine concentration [3, 9] was 119.19 pg/mL and the IL-5 cytokine concentration [3, 9] was 377.16 pg/mL. For the same substance, the IL-6 cytokine concentration [3, 9] was 189.26 pg/mL, the IL-10 cytokine concentration [3, 9] was 1006.65 pg/mL and the IL-13 cytokine concentration [3, 9] was 0 pg/mL. It also gave an IL-17 cytokine concentration [3, 9] of 0 pg/mL, an IL-21 cytokine concentration [3, 9] of 330.42 pg/mL and an IL-22 cytokine concentration [3, 9] of 84.16 pg/mL. The IL-27 cytokine concentration [3, 9] was 329.85 pg/mL, the TNF-α cytokine concentration [3, 9] was 18.91 pg/mL and the IFN-γ cytokine concentration [3, 10] was 3234.33 pg/mL. It also gave an IL-1 cytokine concentration [3, 10] of 196.76 pg/mL, an IL-2 cytokine concentration [3, 10] of 292.52 pg/mL and an IL-4 cytokine concentration [3, 10] of 123.15 pg/mL. For the same substance, the IL-5 cytokine concentration [3, 10] was 465.44 pg/mL, the IL-6 cytokine concentration [3, 10] was 245.96 pg/mL and the IL-10 cytokine concentration [3, 10] was 1383.24 pg/mL. It also gave an IL-13 cytokine concentration [3, 10] of 0 pg/mL, an IL-17 cytokine concentration [3, 10] of 391.98 pg/mL and an IL-21 cytokine concentration [3, 10] of 987.02 pg/mL. It also gave an IL-22 cytokine concentration [3, 10] of 48.93 pg/mL, an IL-27 cytokine concentration [3, 10] of 80.01 pg/mL and a TNF-α cytokine concentration [3, 10] of 62.85 pg/mL.
